Test results published in patent US20230416239A1, “COMPOUNDS AND METHODS FOR TREATING A CYTOKINE-MEDIATED DISEASE” (CONSERVATOIRE NATIONAL DES ARTS ET MÉTIERS, priority 2020, published 2023).

What was measured:
IL-13 = IL-13 (Homo sapiens, UniProt P35225); experiment: Immunoassay binding test, IL-13; conditions: for IC50: IL-13 400 ng/ml, receptor 100 ng/ml, read-out: BINDING IL13 IC50
In short: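 Receptor-coated plates; compounds (100 to 0.78 μM final) preincubated 2 h at 37° C with fixed cytokine, then bound to receptor overnight at 4° C. Bound cytokine detected with biotinylated anti-cytokine antibody and avidin-HRP, OD 450 nm.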

TNFa/TNFRI interaction = TNFa/TNFRI interaction (Homo sapiens, UniProt P01375); experiment: TNFa/TNFRI interaction displacement test; type: binding; conditions: for Displacement (%): compounds at 50 μM, human TNFRI 100 ng/ml; for Displacement EC50 TNFa in presence of compound: Difference: Compound EC50 minus SPD304 EC50;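 as to Displacement EC50 TNFa in presence of compound: Difference: SPD304 reference at 20 µM final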
TNFa/TNFRI interaction, sequence (P01375 77-233 limits assumed): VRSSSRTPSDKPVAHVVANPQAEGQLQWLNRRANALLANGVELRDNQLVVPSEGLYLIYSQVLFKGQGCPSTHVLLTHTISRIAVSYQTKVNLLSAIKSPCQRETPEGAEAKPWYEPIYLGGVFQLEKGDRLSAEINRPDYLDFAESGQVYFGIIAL
In short: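 Plates coated overnight at 4° C with human TNFRI (100 ng/ml) and blocked with 2% BSA, then test mixtures were incubated overnight at 4° C. Bound cytokine detected with biotinylated anti-cytokine antibody (2 h, 37° C) and avidin-HRP, read as OD at 450 nm.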

TNFα = TNFα (Homo sapiens, UniProt P01375); experiment: Immunoassay binding test, TNFa; conditions: compounds 100 to 0.78 μM; TNFα 10 ng/ml, receptor 100 ng/ml; read-out: BINDING TNF IC50
TNFα, sequence (P01375 77-233 limits assumed, species assumed): as the sequence (P01375 77-233 limits assumed) above
In short: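 ELISA-type binding test: receptor-coated plates blocked with 2% BSA, then cytokine (six-point dilution series) preincubated 2 h at 37 °C and bound overnight at 4 °C. Detection used biotinylated anti-cytokine antibody and avidin-HRP, read as OD at 450 nm. For IL-6, IL-6Ra was present at 200 ng/ml final.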

IL-4 = molecular target: T1, IL-4 (Homo sapiens, UniProt P05112); experiment: Immunoassay binding test, IL-4; conditions: for IC50: IL-4 400 ng/ml, receptor 100 ng/ml, read-out: BINDING IL4 IC50
T1 sequence (P05112 25-153): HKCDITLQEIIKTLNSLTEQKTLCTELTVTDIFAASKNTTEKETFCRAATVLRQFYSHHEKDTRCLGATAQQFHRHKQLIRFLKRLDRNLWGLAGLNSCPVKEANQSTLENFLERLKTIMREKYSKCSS
In short: (§1)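 Compounds (final 100 to 0.78 μM) were preincubated 2 h at 37 °C with a fixed amount of cytokine; for IL-6, IL-6Ra was also present at 200 ng/ml final. Mixtures were then incubated overnight at 4 °C on receptor-coated plates. Bound cytokine was detected with biotinylated anti-cytokine antibody and avidin-HRP, read as OD at 450 nm.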

IL-6 = IL-6 (Homo sapiens, UniProt P05231); experiment: Immunoassay binding test, IL-6 (gp130 receptor, IL-6Ra present); conditions: IL-6Ra 200 ng/ml
IL-6, sequence (P05231 30-212, species assumed): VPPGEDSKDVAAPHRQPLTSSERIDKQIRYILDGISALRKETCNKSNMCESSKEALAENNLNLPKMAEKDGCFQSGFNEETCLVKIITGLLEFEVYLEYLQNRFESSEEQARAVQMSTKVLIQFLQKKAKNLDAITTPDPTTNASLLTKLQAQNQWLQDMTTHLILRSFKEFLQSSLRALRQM
In short: as §1

IL-13, sequence (P35225 25-146, species assumed): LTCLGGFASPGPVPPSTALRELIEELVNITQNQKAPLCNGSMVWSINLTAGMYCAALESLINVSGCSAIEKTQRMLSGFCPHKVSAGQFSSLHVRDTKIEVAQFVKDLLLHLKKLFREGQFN

SMILES | BINDING IL13 % Neutra at 100 μM (IL-13) | IC50 (IL-13) | Displacement (%) (TNFa/TNFRI interaction) | IC50 (TNFα) | BINDING IL4 % Neutra at 100 μM (IL-4) | IC50 (IL-4) | BINDING IL6 % Neutra at 100 μM (IL-6) | Displacement EC50 TNFa in presence of compound: Difference (TNFa/TNFRI interaction)
CN(CCCCCN(Cc1ccnc(F)c1)Cc1cn(S(=O)(=O)c2ccccc2)c2ccccc12)C1CCCCC1 [Compound 53, N1-cyclohexyl-N5-((2-fluoropyridin-4-yl)methyl)-N1-methyl-N5-((1-(phenylsulfonyl)-1H-indol-3-yl)methyl)pentane-1,5-diamine] | 91.6% | 15.2 µM | 115% | 8.4 µM | 92.7% | 5.2 µM | 0% | 
FC(F)(F)c1cccc(-n2cc(CN(CCCCCNC3CCCCC3)Cc3cccnc3)c3ccccc32)c1 [Compound 38] | 98.9% | 1.5 µM | 139% | > 50 µM | 95.7% | 3.9 µM | 24.9% | 
CN(CCCCN(Cc1ccncc1)Cc1cn(S(=O)(=O)c2ccccc2)c2ccccc12)C1CCCCC1 [Compound 18] | 94.2% | 80.9 µM | 145% | 2.2 µM | 98.4% | 5.3 µM | 16.3% | Difference = 6 ng/ml
CCCN(CCOCCN(Cc1cccnc1F)Cc1cn(S(=O)(=O)c2ccccc2)c2ccccc12)C1CCCC1 [Compound 106] | 32.1% | > 50 µM | 132% | 11.5 µM | 84.1% | 14.6 µM | 0% | 
O=S(=O)(c1ccccc1)n1cc(CN(CCCCCNC2CCCCC2)Cc2cccc(F)n2)c2ccccc21 [Compound 48, N1-cyclohexyl-N5-((6-fluoropyridin-2-yl)methyl)-N5-((1-(phenylsulfonyl)-1H-indol-3-yl)methyl)pentane-1,5-diamine] | 89.9% | 17.8 µM | 91% | 13.7 µM | 91.2% | 7 µM | 1% | 
FC(F)(F)c1cccc(-n2cc(CN(Cc3ccncc3)CC3CCCN(C4CCCCC4)C3)c3ccccc32)c1 (stereo not drawn) [Compound 6] | 98.6% | 3.1 µM | 153% | 16.6 µM | 95.7% | 3.6 µM | 8.7% | 3.4 ng/mL
O=S(=O)(c1ccccc1)n1cc(CN(CCOCCNC2CCCC2)Cc2cccnc2F)c2ccccc21 [Compound 103, N-(2-(2-(((2-fluoropyridin-3-yl)methyl)((1-(phenylsulfonyl)-1H-indol-3-yl)methyl)amino)ethoxy)ethyl)cyclopentanamine] | 89.1% | 38.9 µM | 159% | 10.2 µM | 91.1% | 10.5 µM | 0% | 
O=S(=O)(c1ccccc1)n1cc(CN(CCCCNC2CCCCC2)Cc2cn(S(=O)(=O)c3ccccc3)c3ccccc23)c2ccccc21 [Compound 89] | 94.7% | 2.6 µM | 63% | 15 µM | 95.6% | 2 µM | 0% | 
CCN(CCOCCN(Cc1cccnc1F)Cc1cn(S(=O)(=O)c2ccccc2)c2ccccc12)C1CCCC1 [Compound 107, N-ethyl-N-(2-(2-(((2-fluoropyridin-3-yl)methyl)((1-(phenylsulfonyl)-1H-indol-3-yl)methyl)amino)ethoxy)ethyl)cyclopentanamine] | 66.1% | 25.9 µM | 169% | 7.2 µM | 74.9% | 5.1 µM | 0% | 
O=S(=O)(c1ccccc1)n1cc(CN(Cc2cccnc2)CC2CCCN(C3CCCCC3)C2)c2ccccc21 (stereo not drawn) [Compound 3] | 96.9% |  | 196% | 4.6 µM | 96.4% | 6.6 µM | 5% | 7.4 ng/mL
CN(C)S(=O)(=O)NCCCCN(Cc1cccnc1F)Cc1cn(S(=O)(=O)c2ccccc2)c2ccccc12 [Compound 78] | 0% |  | 11% | > 50 µM | 33.5% | > 50 µM | 0% | 
O=S(=O)(c1ccccc1)n1cc(CN(CCCNC2CCCCC2)Cc2ccncc2)c2ccccc21 [Compound 8] | 81.7% | > 50 µM | 168% | 12.2 µM | 98.1% | 5.3 µM | 3.3% | 10.9 ng/mL
O=S(=O)(c1ccccc1)n1cc(CN(Cc2ccccn2)CC2CCCN(C3CCCCC3)C2)c2ccccc21 (stereo not drawn) [Compound 1] | 94.6% | 23.5 µM | 178% | 11.9 µM | 97.5% | 4.1 µM | 5.5% | 9.1 ng/mL
O=S(=O)(NCCCCN(Cc1cccnc1F)Cc1cn(S(=O)(=O)c2ccccc2)c2ccccc12)N1CCCCCC1 [Compound 81] | 0% |  | 0% | > 50 µM | 39.3% | > 50 µM | 1% | 
O=S(=O)(c1ccccc1)n1cc(CN(Cc2cccc(F)n2)CC2CCCN(C3CCCCC3)C2)c2ccccc21 (stereo not drawn) [Compound 41] | 87.6% | 9.2 µM | 152% | 7 µM | 94.7% | 4.8 µM | 0% | 4.7 ng/mL
O=S(=O)(c1ccccc1)n1cc(CN(CCCCNCc2cccnc2F)Cc2cn(S(=O)(=O)c3ccccc3)c3ccccc23)c2ccccc21 [Compound 88] | 8% |  | 5% | > 50 µM | 69.0% | 5.3 µM | 9% | 
CN1CCN(C(=O)NCCCCN(Cc2cccnc2F)Cc2cn(S(=O)(=O)c3ccccc3)c3ccccc23)CC1 [Compound 83] | 1% |  | 93% | 21 µM | 84.6% | > 50 µM | 0% | 
